Measurements reported in patent publication US8822503B2, “2-pyridone compounds” (Taisho Pharmaceutical Co., Ltd, priority 2009, dated 2014).

target: T1, human liver GK (Homo sapiens, UniProt P35557); experiment: GK activation test; format: biochemical; conditions: test compound concentration needed to activate 50% of maximum activation ability; 4 mM 14C-labeled glucose, 2 mM ATP, room temperature, 20 minutes
T1 construct: GST (glutathione S-transferase) (N); made in house; host or cells: E. coli
T1 sequence (P35557 1-466 isoform P35557-2): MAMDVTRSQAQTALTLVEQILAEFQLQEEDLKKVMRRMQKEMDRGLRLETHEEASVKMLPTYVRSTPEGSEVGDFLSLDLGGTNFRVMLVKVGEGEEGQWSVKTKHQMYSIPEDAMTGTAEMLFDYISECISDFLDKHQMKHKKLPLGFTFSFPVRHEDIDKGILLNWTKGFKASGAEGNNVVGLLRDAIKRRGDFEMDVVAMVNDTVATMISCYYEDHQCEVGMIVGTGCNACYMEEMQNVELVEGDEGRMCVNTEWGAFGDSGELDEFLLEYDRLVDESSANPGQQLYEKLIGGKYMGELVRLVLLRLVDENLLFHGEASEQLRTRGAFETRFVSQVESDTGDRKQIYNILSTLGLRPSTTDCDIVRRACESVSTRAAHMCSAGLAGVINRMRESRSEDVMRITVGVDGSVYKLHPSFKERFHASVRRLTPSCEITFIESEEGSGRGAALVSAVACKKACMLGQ
Procedure: The GK activation test for the test compounds was performed by the method of Irwin A. Rose et al. (J. Biol. Chem. 1964 January; 239:12-7) with partial modifications.
The enzyme source used in this assay, human liver GK, was expressed in E. coli as a fusion protein with GST (glutathione S-transferase) added to the amino terminus and was purified using Glutathione Sepharose 4B (Amersham Biosciences).
The test was carried out using flat-bottom 96-well plates (Sumitomo Bakelite Co., Ltd.). A solution of the test compound in dimethyl sulfoxide (DMSO) and DMSO as a control were added to each well of the plates at a final DMSO concentration of 1%. 25 mM Hepes-KOH (pH=7.1), 25 mM KCl, 2 mM MgCl2, 2 mM ATP, 4 mM ^14C-labeled glucose (Muromachi Yakuhin) and 1 mM DTT (dithiothreitol) were further added at the indicated final concentrations, respectively. Finally, human liver GK was added at 0.24 microgram per well and the reaction was started. The reaction was carried out at room temperature.
After 20 minutes, AG1-X4 resin (BioRad) suspended in 25 mM Hepes-KOH (pH=7.1) was added and the reaction product, labeled glucose 6-phosphate, was allowed to bind thereto. The whole volume was transferred to MultiScreen plates (Millipore) and the resin was washed with water. Thereafter, the labeled glucose 6-phosphate binding to the resin was eluted with a 0.5 M NaCl solution. The labeling activity of the eluted labeled glucose 6-phosphate was measured as an index of GK activity.
The GK activity maximally activated by the test compound was described as maximum activation ability, and the test compound concentration needed to activate 50% of that ability was described as EC50.

Compound	EC50
CSc1ccc([C@]2(c3ccc(C)c(=O)[nH]3)C[C@@H]2C2CCCC2)cc1Cl (relative stereo) [Example 3-1, trans-6-{-1-[3-Chloro-4-(methylsulfanyl)phenyl]-2-cyclopentylcyclopropyl}-3-methylpyridin-2(1H)-one]	0.5 to 3 µM
Cc1ccc([C@@]2(c3ccc(S(C)(=O)=O)c(Cl)c3)C[C@@H]2C2CCCC2)[nH]c1=O (relative stereo) [Example 3-2, trans-6-{1-[3-Chloro-4-(methylsulfonyl)phenyl]-2-cyclopentylcyclopropyl}-3-methylpyridin-2(1H)-one]	0.5 to 3 µM
CSc1ccc([C@]2(c3ccc(C)c(=O)[nH]3)C[C@@H]2C2CCCC2)cc1 (relative stereo) [Example 3-3, trans-6-{2-Cyclopentyl-1-[4-(methylsulfanyl)phenyl]cyclopropyl}-3-methylpyridin-2(1H)-one]	0.5 to 3 µM
Cc1ccc([C@@]2(c3ccc(S(C)(=O)=O)cc3)C[C@@H]2C2CCCC2)[nH]c1=O (relative stereo) [Example 3-4, trans-6-{2-Cyclopentyl-1-[4-(methylsulfonyl)phenyl]cyclopropyl}-3-methylpyridin-2(1H)-one]	3 to 10 µM
CC(C)(C)c1ccc(C(C[C@H]2CCC(=O)N2)c2ccc(Cl)c(=O)[nH]2)cc1 (single isomer, unassigned) [Example 4-69]	3 to 10 µM
CC(C)(C)c1ccc(C(C[C@H]2CCC(=O)N2)c2ccc(Cl)c(=O)[nH]2)cc1 (single isomer, unassigned) [Example 4-70]	0.5 to 3 µM
CC(C)(C)c1ccc(C(C[C@@H]2CCC(=O)N2)c2ccc(Cl)c(=O)[nH]2)cc1 (single isomer, unassigned) [Example 4-76]	3 to 10 µM
CC(C)(C)c1ccc(C(C[C@@H]2CCC(=O)N2)c2ccc(Cl)c(=O)[nH]2)cc1 (single isomer, unassigned) [Example 4-77]	3 to 10 µM
CC(C)c1ccc(C(C[C@H]2CCC(=O)N2)c2ccc(Cl)c(=O)[nH]2)cc1 (single isomer, unassigned) [Example 4-85]	0.5 to 3 µM
CC(C)c1ccc(C(C[C@H]2CCC(=O)N2)c2ccc(Cl)c(=O)[nH]2)cc1Cl (single isomer, unassigned) [Example 4-86]	0.01 to 0.5 µM
CCOc1ccc(C(C[C@H]2CCC(=O)N2)c2ccc(C3CC3)c(=O)[nH]2)cc1Cl (single isomer, unassigned) [Example 4-87]	0.01 to 0.5 µM
CC(C)(C)c1ccc(C(C[C@H]2CCN(C(=O)C3CC3)C2)c2ccc(Cl)c(=O)[nH]2)cc1 (single isomer, unassigned) [Example 4-96]	0.01 to 0.5 µM
CC(C)(C)c1ccc(C(C[C@H]2CCN(C(=O)C3CC3)C2)c2ccc(Cl)c(=O)[nH]2)cc1 (single isomer, unassigned) [Example 4-97]	3 to 10 µM
O=C1CC[C@H](CC(c2ccc3c(c2)CCO3)c2ccc(C3CC3)c(=O)[nH]2)N1 (single isomer, unassigned) [Example 4-209]	0.5 to 3 µM
O=C1CC[C@H](CC(c2ccc(F)c(Cl)c2)c2ccc(C3CC3)c(=O)[nH]2)N1 (single isomer, unassigned) [Example 4-211]	0.5 to 3 µM
Cc1cc(C(C[C@H]2CCC(=O)N2)c2ccc(C3CC3)c(=O)[nH]2)ccc1Cl (single isomer, unassigned) [Example 4-213]	0.5 to 3 µM
Cc1cc(C(C[C@H]2CCC(=O)N2)c2ccc(C3CC3)c(=O)[nH]2)ccc1Cl (single isomer, unassigned) [Example 4-214]	3 to 10 µM
Cc1ccc(C(C[C@H]2CCC(=O)N2)c2ccc(C3CC3)c(=O)[nH]2)cc1Cl (single isomer, unassigned) [Example 4-215]	0.01 to 0.5 µM
Cc1ccc(C(C[C@H]2CCC(=O)N2)c2ccc(C3CC3)c(=O)[nH]2)cc1Cl (single isomer, unassigned) [Example 4-216]	3 to 10 µM
O=C1CC[C@H](CC(c2ccc(Cl)c(F)c2)c2ccc(C3CC3)c(=O)[nH]2)N1 (single isomer, unassigned) [Example 4-217]	0.5 to 3 µM
O=C1CC[C@H](CC(c2ccc(C(F)(F)F)c(F)c2)c2ccc(C3CC3)c(=O)[nH]2)N1 (single isomer, unassigned) [Example 4-219]	0.5 to 3 µM
O=C1CC[C@H](CC(c2ccc(Cl)c(C(F)(F)F)c2)c2ccc(C3CC3)c(=O)[nH]2)N1 (single isomer, unassigned) [Example 4-221]	0.5 to 3 µM

Compound	EC50
O=C1CC[C@H](CC(c2ccc(Cl)c(C(F)(F)F)c2)c2ccc(C3CC3)c(=O)[nH]2)N1 (single isomer, unassigned) [Example 4-222]	3 to 10 µM
Cc1cc(C(C[C@H]2CCC(=O)N2)c2ccc(C3CC3)c(=O)[nH]2)ccc1F (single isomer, unassigned) [Example 4-223]	0.5 to 3 µM
Cc1cc(C(C[C@H]2CCC(=O)N2)c2ccc(C3CC3)c(=O)[nH]2)ccc1F (single isomer, unassigned) [Example 4-224]	3 to 10 µM
O=C1CC[C@H](CC(c2ccc(C(F)F)c(Cl)c2)c2ccc(C3CC3)c(=O)[nH]2)N1 (single isomer, unassigned) [Example 4-225]	0.01 to 0.5 µM
O=C1CC[C@H](CC(c2ccc(C(F)F)c(Cl)c2)c2ccc(C3CC3)c(=O)[nH]2)N1 (single isomer, unassigned) [Example 4-226]	3 to 10 µM
COc1cc(C(C[C@H]2CCC(=O)N2)c2ccc(C3CC3)c(=O)[nH]2)ccc1Cl (single isomer, unassigned) [Example 4-227]	0.5 to 3 µM
O=C1CC[C@H](CC(c2ccc(OC(F)F)cc2)c2ccc(C3CC3)c(=O)[nH]2)N1 (single isomer, unassigned) [Example 4-229]	0.5 to 3 µM
O=C1CC[C@H](CC(c2ccc(OC(F)F)cc2)c2ccc(C3CC3)c(=O)[nH]2)N1 (single isomer, unassigned) [Example 4-230]	3 to 10 µM
Cc1cc(C(C[C@H]2CCC(=O)N2)c2ccc(C3CC3)c(=O)[nH]2)ccc1C(F)F (single isomer, unassigned) [Example 4-231]	0.01 to 0.5 µM
Cc1cc(C(C[C@H]2CCC(=O)N2)c2ccc(C3CC3)c(=O)[nH]2)ccc1C(F)F (single isomer, unassigned) [Example 4-232]	3 to 10 µM
O=C1CC[C@H](CC(c2ccc(C(F)F)c(F)c2)c2ccc(C3CC3)c(=O)[nH]2)N1 (single isomer, unassigned) [Example 4-233]	0.5 to 3 µM
O=C1CC[C@H](CC(c2ccc(C(F)F)c(F)c2)c2ccc(C3CC3)c(=O)[nH]2)N1 (single isomer, unassigned) [Example 4-234]	3 to 10 µM
CCOc1ccc(C(C[C@H]2CCC(=O)N2)c2ccc(Cl)c(=O)[nH]2)cc1 (single isomer, unassigned) [Example 4-235]	3 to 10 µM
CCOc1ccc(C(C[C@H]2CCC(=O)N2)c2ccc(Cl)c(=O)[nH]2)cc1C(F)(F)F (single isomer, unassigned) [Example 4-237]	0.5 to 3 µM
CCOc1ccc(C(C[C@H]2CCC(=O)N2)c2ccc(Cl)c(=O)[nH]2)cc1C (single isomer, unassigned) [Example 4-239]	0.5 to 3 µM
CCOc1ccc(C(C[C@H]2CCC(=O)N2)c2ccc(Cl)c(=O)[nH]2)cc1C (single isomer, unassigned) [Example 4-240]	3 to 10 µM
CCCc1ccc(C(C[C@H]2CCC(=O)N2)c2ccc(C(F)(F)F)cc2)[nH]c1=O (single isomer, unassigned) [Example 4-242]	0.5 to 3 µM
CCCc1ccc(C(C[C@H]2CCC(=O)N2)c2ccc(C(F)(F)F)cc2)[nH]c1=O (single isomer, unassigned) [Example 4-243]	3 to 10 µM
COc1ccc(C(C[C@H]2CCC(=O)N2)c2ccc(C(C)(C)C)cc2)[nH]c1=O (single isomer, unassigned) [Example 4-244]	0.5 to 3 µM
COc1ccc(C(C[C@H]2CCC(=O)N2)c2ccc(C(C)(C)C)cc2)[nH]c1=O (single isomer, unassigned) [Example 4-245]	3 to 10 µM
CC(C)(C)c1ccc(C(C[C@H]2CCC(=O)N2)c2ccc(OC(F)F)c(=O)[nH]2)cc1 (single isomer, unassigned) [Example 4-246]	0.5 to 3 µM
CC(C)(C)c1ccc(C(C[C@H]2CCC(=O)N2)c2ccc(OC(F)F)c(=O)[nH]2)cc1 (single isomer, unassigned) [Example 4-247]	3 to 10 µM
